Drawing on publication PMC10117910, “Recombinant production, purification, and biochemical characterization of a novel L-lactate dehydrogenase from Bacillus cereus NRC1 and inhibition study of mangiferin” (Frontiers in Bioengineering and Biotechnology, 2023), this text covers Ki and stoichiometry N for 2 molecules.

Experiment [1] addresses T1, L-lactate dehydrogenase (Bc-LDH) (Bacillus cereus, UniProt Q81EP4).
T1 construct: gene ldh1; full-length, 314 amino acids (GenBank BDI00612.1), recombinant from pET28-Bc-LDH in E. coli BL21 (DE3)
Kind of experiment: LDH activity assay (NADH absorbance at […] nm) of purified enzyme; Lineweaver-Burk and Dixon plots. In kind it is biochemical.

Experiment [2] concerns the target Bacillus cereus NRC1 L-lactate dehydrogenase (Bacillus cereus NRC1) (UniProt P0A392). Kind of experiment: SEC; gel filtration on a calibrated Sephacryl S-300 column (142 cm × 1.75 cm i.d.), eluted with 0.02 M phosphate buffer pH 7.5; native mass compared with the subunit mass by SDS-PAGE (35 kDa). (In general: In gel filtration, larger molecules generally elute earlier.)

T1 sequence (Q81EP4 whole entry): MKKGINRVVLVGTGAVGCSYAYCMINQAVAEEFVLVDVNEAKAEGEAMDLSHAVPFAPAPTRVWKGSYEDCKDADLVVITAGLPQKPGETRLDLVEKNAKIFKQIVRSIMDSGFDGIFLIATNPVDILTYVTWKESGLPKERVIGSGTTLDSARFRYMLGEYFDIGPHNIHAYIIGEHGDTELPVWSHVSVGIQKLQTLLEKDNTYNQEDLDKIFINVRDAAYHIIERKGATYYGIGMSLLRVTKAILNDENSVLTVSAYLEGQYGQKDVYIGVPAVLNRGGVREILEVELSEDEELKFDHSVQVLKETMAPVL

`O=c1c2cc(O)c(O)cc2oc2cc(O)c([C@@H]3O[C@H](CO)[C@@H](O)[C@H](O)[C@H]3O)c(O)c12` [mangiferin, 2-β-D-glucopyranosyl-1,3,6,7-tetrahydroxy-9H-xanthen-9-one]: the affinity in experiment [1] corresponds to a Ki of 75 µM. This counts as double-digit micromolar.

Turning to “Bacillus cereus NRC1 L-lactate dehydrogenase (from UniProt P0A392 1-366) (enzyme)”, in experiment [2], the stoichiometry N (commonly the number of molecules, sites or subunits per partner or assembly) worked out at 4.
